Assay [1] has as its target T1, Dual specificity tyrosine-phosphorylation-regulated kinase 1A (Homo sapiens, UniProt Q13627). Kind of assay: Inhibition of human C-terminal his tagged DYRK1A (26 to 490 residues) transfected in HEK293T cells assessed as inhibition of cyclin D1 phosphorylation at 10 uM incubated for 3 hrs by Western blot analysis. Format: cell-based. Background: In western blotting, separated proteins are transferred to a membrane and probed.

In assay [2] the target is T2, Glycogen synthase kinase-3 beta (Homo sapiens, UniProt P49841). Kind of assay: Inhibition of human C-terminal his tagged GSK3beta (26 to 383 residues) transfected in HEK293T cells assessed as inhibition of cyclin D1 phosphorylation at 10 uM incubated for 3 hrs by Western blot analysis. Format: cell-based.
Target sequence in this assay (P49841 whole entry, looked up, the tested form may be a part): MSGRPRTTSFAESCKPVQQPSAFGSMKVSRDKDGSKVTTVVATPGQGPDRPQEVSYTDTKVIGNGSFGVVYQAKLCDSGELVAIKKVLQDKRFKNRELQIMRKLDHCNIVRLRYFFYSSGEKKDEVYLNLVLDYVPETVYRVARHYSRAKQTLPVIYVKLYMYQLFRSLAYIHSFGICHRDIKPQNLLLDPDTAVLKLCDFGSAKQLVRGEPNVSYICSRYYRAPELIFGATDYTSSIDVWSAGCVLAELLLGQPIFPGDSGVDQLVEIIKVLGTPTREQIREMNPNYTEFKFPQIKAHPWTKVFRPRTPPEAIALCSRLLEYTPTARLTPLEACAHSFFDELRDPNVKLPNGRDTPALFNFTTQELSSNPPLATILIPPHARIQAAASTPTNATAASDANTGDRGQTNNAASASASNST
The target in assay [3] is T2, Glycogen synthase kinase-3 beta. The assay is described as follows: Inhibition human C-terminal his tagged m-Cherry GSK3beta (26 to 383 residues) in HEK293T cells assessed as reversal of ionomycin stimulated NFAT cellular localization at 5 uM incubated for 3 hrs followed by ionomycin stimulation for 1 hr by Hoechst 33258 staining based fluorescence microscopic analysis. Format: cell-based. The settings on record: time 4.0 hrs.
Target sequence in this assay (P49841 whole entry, looked up, the tested form may be a part): as above

For assay [4] the target is unchanged. The settings on record: dose 500.0 nM.
Target sequence in this assay (P49841 whole entry, looked up, the tested form may be a part): as above
Assay [5] concerns the target T1, Dual specificity tyrosine-phosphorylation-regulated kinase 1A. The assay is described as follows: Binding affinity to human C-terminal his tagged DYRK1A (26 to 490 residues) expressed in Escherichia coli at 100 uM by radiometric analysis.
For assay [6] the target is unchanged. The assay is described as follows: Inhibition of human C-terminal his tagged DYRK1A (26 to 490 residues) expressed in Escherichia coli using DYRKtide (RRRFRPASPLRGPPK) as peptide substrate incubated for 1 hr in presence of ATP by cook activity assay.
The target in assay [7] is T2, Glycogen synthase kinase-3 beta. The assay is described as follows: Inhibition of human C-terminal his tagged GSK3beta (26 to 383 residues) expressed in Escherichia coli using GYSI(YRRAAVPPSPSLSRHSSPHQ(pS)EDEEE) as peptide substrate incubated for 1 hr in presence of ATP by cook activity assay.
Target sequence in this assay (P49841 whole entry, the tested form may be a part): as the sequence (P49841 whole entry, looked up, the tested form may be a part) above
For assay [8] the target is unchanged. Kind of assay: Stabilization of human C-terminal his tagged GSK3beta (26 to 383 residues) expressed in Escherichia coli assessed as change in melting temperature at 10 uM by SYPRO orange dye based thermal shift assay.
Target sequence in this assay (P49841 whole entry, looked up, the tested form may be a part): as the sequence (P49841 whole entry, looked up, the tested form may be a part) above

Activity calls are given as the source filed them. No cut-off for these calls is given here.

What is called inhibition is how much of the control response was suppressed. On to `O=C(O)c1ccc2c(c1)nc(Nc1cccc(Cl)c1)c1ccncc12`, for which the inhibition in assay [1] was 100%; in assay [2], 100%; in assay [4] it was 50%. In assay [3], the inhibition result was “Active”.

`O=C1Cc2c([nH]c3ccc(Br)cc23)-c2ncccc2N1` [AZAKENPAULLONE]: the outcome in assay [5] was inactive. In assay [6], the IC50 entry is recorded as “Not Active”. Also, the inhibition result in assay [1], in assay [2] and in assay [3] was “Active” throughout.

On to `COc1ccc2c(c1)[nH]c1c(C)nccc12` [HARMINE], for which the IC50 result in assay [7] is given as “Not Active”. Further, the Tm entry in assay [8] is “inactive”. Also, the inhibition entry in assay [1] and in assay [2] was “Active” each time.

(Values after ChEMBL document CHEMBL5247654 (J Med Chem, 2023).)
